Measurements from patent publication US8420657B2 (Novartis AG, priority 2008, dated 2013).

Key:
GST-JAK2(808-1132) = molecular target: T1, GST-JAK2(808-1132) (Homo sapiens, UniProt O60674); experiment: JAK2 kinase assay (Caliper mobility shift, LabChip 3000); format: biochemical
T1 construct: GST-JAK2(808-1132); purchased Invitrogen (Carlsbad, USA) #4288
Summary of the method: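 Recombinant GST-JAK2(808-1132) kinase domain with FITC-labelled JAK3tide peptide substrate and ATP; 60 min at 30 °C, EDTA stop. Substrate/product ratio read by microfluidic mobility shift; compounds at 8 final concentrations, 10 to 0.003 μM.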

[1] = tested on: JAK1/JAK2-dependent nuclear translocation of STAT1-GFP in HT1080 fibrosarcoma cells; experiment: STAT1 nuclear translocation assay (Cellomics), IFN-γ stimulated HT1080 STAT1-GFP cells; format: cell-based
Summary of the method: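 HT1080 cells stably expressing STAT1-GFP, pre-treated 30 min with compound (10 μM–0.003 μM, 0.1% DMSO), then stimulated 2 h with 100 ng/ml IFN-γ, fixed and Hoechst-stained. Nuclear-cytoplasmic GFP differential imaged over ≥1000 cells/well, normalised to unstimulated and DMSO-stimulated wells for IC50.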

[2] = Homo sapiens, HT-1080, STAT1 translocation pathway

T1 sequence (O60674 808-1132): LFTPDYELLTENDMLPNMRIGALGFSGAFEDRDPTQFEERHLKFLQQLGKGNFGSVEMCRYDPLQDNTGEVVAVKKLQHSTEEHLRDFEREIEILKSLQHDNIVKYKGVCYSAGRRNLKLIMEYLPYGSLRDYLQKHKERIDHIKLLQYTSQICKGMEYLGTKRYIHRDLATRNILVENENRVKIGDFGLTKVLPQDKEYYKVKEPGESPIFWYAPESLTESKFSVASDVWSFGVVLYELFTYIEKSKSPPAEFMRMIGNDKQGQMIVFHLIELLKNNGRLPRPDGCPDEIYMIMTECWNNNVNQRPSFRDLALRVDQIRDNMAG

| Compound | IC50 (GST-JAK2(808-1132)) | IC50 [1, 2] | IC50 ([1]; STAT1 translocation pathway) |
| --- | --- | --- | --- |
| Fc1cc(-n2ccc3cnc(Nc4ccc(CN5CCOCC5)cc4)nc32)cc(F)c1CN1CCOCC1 [Example 197, [7-(3,5-Difluoro-4-morpholin-4-ylmethyl-phenyl)-7H-pyrrolo[2,3-d]pyrimidin-2-yl]-(4-morpholin-4-ylmethyl-phenyl)-amine] | < 3 nM | 90 nM | – |
| CN(C)CCN(C)C(=O)c1ccc(Nc2ncc3ccn(-c4ccc(S(C)(=O)=O)cc4)c3n2)cc1 [Example 65, N-(2-Dimethylamino-ethyl)-4-[7-(4-methanesulfonyl-phenyl)-7H-pyrrolo[2,3-d]pyrimidin-2-ylamino]-N-methyl-benzamide] | 5.4 nM | 99.5 nM | – |
| CS(=O)(=O)c1ccc(-n2ccc3cnc(Nc4cccc(CN5CCCCC5)c4)nc32)cc1 [Example 41, [7-(4-Methanesulfonyl-phenyl)-7H-pyrrolo[2,3-d]pyrimidin-2-yl]-(3-piperidin-1-ylmethyl-phenyl)-amine] | < 3 nM | 75 nM | – |
| Cc1ccc(Nc2ncc3ccn(-c4ccc(C(=O)N5CCOCC5)c(F)c4)c3n2)cn1 [Example 223] | 9.2 nM | 455 nM | – |
| O=C(c1ccc(-n2ccc3cnc(Nc4cccnc4)nc32)cc1F)N1CCOCC1 [Example 224, {2-Fluoro-4-[2-(pyridin-3-ylamino)-pyrrolo[2,3-d]pyrimidin-7-yl]-phenyl}-morpholin-4-yl-methanone] | 8.5 nM | 1080 nM | – |
| Cc1cc(Nc2ncc3ccn(-c4cc(F)c(C(=O)N5CCOCC5)c(F)c4)c3n2)ccc1F [Example 89, {2,6-Difluoro-4-[2-(4-fluoro-3-methyl-phenylamino)-pyrrolo[2,3-d]pyrimidin-7-yl]-phenyl}-morpholin-4-yl-methanone] | < 3 nM | – | 410 nM |
| Cc1cc(Nc2ncc3ccn(-c4cc(F)c(C(=O)N5CCOCC5)c(F)c4)c3n2)ccc1F [Example 213, {2,6-Difluoro-4-[2-(4-fluoro-3-methyl-phenylamino)-pyrrolo[2,3-d]pyrimidin-7-yl]-phenyl}-morpholin-4-yl-methanone] | 5.9 nM | 728 nM | – |
| CS(=O)(=O)c1ccc(-n2ccc3cnc(Nc4ccc(C(=O)NCCN5CCOCC5)cc4)nc32)cc1 [Example 67, 4-[7-(4-Methanesulfonyl-phenyl)-7H-pyrrolo[2,3-d]pyrimidin-2-ylamino]-N-(2-morpholin-4-yl-ethyl)-benzamide] | < 3 nM | 39 nM | – |
| COCCn1cc(Nc2ncc3ccn(-c4cc(F)c(C(=O)N5CCOCC5)c(F)c4)c3n2)cn1 [Example 251, (2,6-Difluoro-4-{2-[1-(2-methoxy-ethyl)-1H-pyrazol-4-ylamino]-pyrrolo[2,3-d]pyrimidin-7-yl}-phenyl)-morpholin-4-yl-methanone] | 6.1 nM | 450 nM | – |
| CCN1CCN(Cc2c(F)cc(-n3ccc4cnc(Nc5ccc(F)c(C)c5)nc43)cc2F)CC1=O [Example 134, 4-{2,6-Difluoro-4-[2-(4-fluoro-3-methyl-phenylamino)-pyrrolo[2,3-d]pyrimidin-7-yl]-benzyl}-1-ethyl-piperazin-2-one] | 20.5 nM | 1880 nM | – |
| C[C@@H]1CN(c2ccc(Nc3ncc4ccn(-c5cc(F)c(CN6CCOCC6)c(F)c5)c4n3)cn2)C[C@H](C)N1 [Example 267, [7-(3,5-Difluoro-4-morpholin-4-ylmethyl-phenyl)-7H-pyrrolo[2,3-d]pyrimidin-2-yl]-[6-(cis-3,5-dimethyl-piperazin-1-yl)-pyridin-3-yl]-amine] | < 3 nM | 50 nM | – |
| Cc1ccc(Nc2ncc3ccn(-c4cc(F)c(CN5CCOCC5)c(F)c4)c3n2)cc1CN1CCNC(=O)C1 [Example 334, 4-{5-[7-(3,5-Difluoro-4-morpholin-4-ylmethyl-phenyl)-7H-pyrrolo[2,3-d]pyrimidin-2-ylamino]-2-methyl-benzyl}-piperazin-2-one] | ≤ 3 nM | 260 nM | – |
| COc1ccc(Nc2ncc3ccn(-c4ccc(C(=O)N5CCS(=O)(=O)CC5)cc4)c3n2)cn1 [Example 250, (1,1-Dioxido-thiomorpholin-4-yl)-{4-[2-(6-methoxy-pyridin-3-ylamino)-pyrrolo[2,3-d]pyrimidin-7-yl]-phenyl}-methanone] | 9.1 nM | 940 nM | – |
| Cn1cc(Nc2ncc3ccn(-c4ccc(C(=O)N5CCOCC5)c(F)c4)c3n2)cn1 [Example 302, {2-Fluoro-4-[2-(1-methyl-1H-pyrazol-4-ylamino)-pyrrolo[2,3-d]pyrimidin-7-yl]-phenyl}-morpholin-4-yl-methanone] | 6.1 nM | 85 nM | – |
| Fc1cc(-n2ccc3cnc(Nc4ccc(N5CCNCC5)nc4)nc32)cc(F)c1CN1CCOCC1 [Example 263, [7-(3,5-Difluoro-4-morpholin-4-ylmethyl-phenyl)-7H-pyrrolo[2,3-d]pyrimidin-2-yl]-(6-piperazin-1-yl-pyridin-3-yl)-amine] | < 3 nM | 55 nM | – |
| Cc1ccc(Nc2ncc3ccn(-c4ccc(C(=O)N5CCOCC5)c(F)c4)c3n2)cc1C [Example 152, {4-[2-(3,4-Dimethyl-phenylamino)-pyrrolo[2,3-d]pyrimidin-7-yl]-2-fluoro-phenyl}-morpholin-4-yl-methanone] | 3.5 nM | 168 nM | – |
| CC(=O)c1ccc(Nc2ncc3ccn(-c4ccc(S(C)(=O)=O)cc4)c3n2)cc1 [Example 79, 1-{4-[7-(4-Methanesulfonyl-phenyl)-7H-pyrrolo[2,3-d]pyrimidin-2-ylamino]-phenyl}-ethanone] | 4.8 nM | 257 nM | – |
| O=C(Cc1ccc(-n2ccc3cnc(Nc4ccccc4)nc32)cc1)N1CCOCC1 [Example 143, 1-Morpholin-4-yl-2-[4-(2-phenylamino-pyrrolo[2,3-d]pyrimidin-7-yl)-phenyl]-ethanone] | < 3 nM | 195 nM | – |
| Cc1ccc(Nc2ncc3ccn(-c4ccc(CN5CCOCC5)c(F)c4)c3n2)cc1Cl [Example 118, (3-Chloro-4-methyl-phenyl)-[7-(3-fluoro-4-morpholin-4-ylmethyl-phenyl)-7H-pyrrolo[2,3-d]pyrimidin-2-yl]-amine] | 75 nM | 1520 nM | – |
| Cn1cc(Nc2ncc3ccn(-c4cc(F)c(C(=O)N5CCOCC5)c(F)c4)c3n2)cn1 [Example 241, {2,6-Difluoro-4-[2-(1-methyl-1H-pyrazol-4-ylamino)-pyrrolo[2,3-d]pyrimidin-7-yl]-phenyl}-morpholin-4-yl-methanone] | 5.4 nM | 370 nM | – |
| Fc1cc(-n2ccc3cnc(Nc4ccc(N5CCNC6(CC6)C5)nc4)nc32)cc(F)c1CN1CCOCC1 [Example 270, [6-(4,7-Diaza-spiro[2.5]oct-7-yl)-pyridin-3-yl]-[7-(3,5-difluoro-4-morpholin-4-ylmethyl-phenyl)-7H-pyrrolo[2,3-d]pyrimidin-2-yl]-amine] | 4.3 nM | 35 nM | – |
| Fc1cc(-n2ccc3cnc(Nc4ccc(CN5CCNC6(CC6)C5)cc4)nc32)cc(F)c1CN1CCOCC1 [Example 256] | < 3 nM | 115 nM | – |
| CS(=O)(=O)c1ccc(-n2ccc3cnc(Nc4cccc(C(=O)N5CCOCC5)c4)nc32)cc1 [Example 49, {3-[7-(4-Methanesulfonyl-phenyl)-7H-pyrrolo[2,3-d]pyrimidin-2-ylamino]-phenyl}-morpholin-4-yl-methanone] | 14 nM | 878 nM | – |
